The source of these data is patent US12174174B2, “Composition comprising material for regulating OCT4 modification to repress stemness” (NATIONAL CANCER CENTER, priority 2018, dated 2024).

The test system of the data set is CSNK2A1. Kind of data set: Doxycycline-dependent shRNA inhibition of CSNK2A1 expression in embryonic stem cell line E14, western blotting. The class given is cell-based, mouse. To be noted: E14 cells, lentivirus, FIG. 24. The source says: To confirm the relationship between CSNK2A1 and OCT4 phosphorylation using a kinase inducing the phosphorylation of serine 351 of OCT4, a cell line for regulating the inhibition of CSNK2A1 expression was produced. To this end, a lentivirus doxycycline-dependently expressing shRNA of SEQ ID NO: 5 or 6 was produced and transfected into an embryonic stem cell line E14, thereby producing a cell line capable of regulating CSNK2A1 expression using doxycycline.
In general terms: A western blot detects proteins with antibodies after separation by electrophoresis.

On to “shRNA of SEQ ID NO: 5: short hairpin RNA inhibiting CSNK2A1 expression, base sequence of SEQ ID NO: 5 (CCGGCCGAGUUGCUUCUCGAUAUUUCUCGAGAAAUAUCGAGAAGCAACUCGGUUUUG)”, for which the “OCT4 phosphorylation after inhibition of CSNK2A1 expression” value is on record as “a kinase inducing OCT4 phosphorylation is CSNK2A1”. The same measure for “shRNA of SEQ ID NO: 6: short hairpin RNA inhibiting CSNK2A1 expression, base sequence of SEQ ID NO: 6 (CCGGACAGACUAUGACAUUCGAUUUCUCGAGAAAUCGAAUGUCAUAGUCUGUUUUUUG)”: “a kinase inducing OCT4 phosphorylation is CSNK2A1”.
